One series concerns the target Myc/Max binding to DNA (Homo sapiens, UniProt P01106). Kind of series: Electrophoretic mobility shift assay (EMSA) of Myc/Max binding to DNA. The format is biochemical. Particulars: for remaining activity at 100 µM / remaining activity at 200 µM: EMSA; for remaining activity at 100 µM: 100 uM test compound, read-out: Bound DNA (%) (100uM); for remaining activity at 200 µM: 200 uM test compound, read-out: Bound DNA (%) (200uM). An outline of the steps: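 Electrophoretic mobility shift assay of Myc/Max binding to DNA. Compounds tested at 200 μM, 100 μM and 50 μM.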

In series [1] the test system is cMyc wild-type (WT) and a cMyc KO line. Kind of series: Cell viability assay against cMyc WT and cMyc KO line. Type of series: cell-based. As to conditions: FIG. 4. Here is the method: Min9 (NUCC-0176234) was also tested in a cell viability assay against a cMyc wild-type (WT) and a cMyc KO line.
In series [2] the test system is DNA damage (rH2AX staining). In words: rH2AX staining assay for DNA damage. The format is cell-based. Here is the method: Min9 (NUCC-0176234) was also tested for its ability to cause DNA damage in an rH2AX staining assay. We would not expect cMyc-targeting agents to produce significant DNA damage. Compounds that act directly against DNA such as doxorubicin do however. […] (See FIG. 6).

The nature of series [3]: Pharmacokinetics in mice after intravenous dosing. The format is in vivo. As to conditions: 5 mg/kg intravenously. Here is the method:
The pharmacokinetics of NUCC-176242 and NUCC-176248 were studied in mice by administering a dose of 5 mg/kg intravenously and measuring the plasma concentration versus time.

A short description of series [4]: In vitro metabolism with mouse liver microsomes and mouse S9 fraction. The format is in vitro ADME. As to conditions: compared with NUCC-176248. Here is the method: In vitro metabolism of NUCC-176242 and NUCC-176248 were tested using mouse liver microsomes and a mouse S9 fraction.
Series [5] deals with wild type and Myc knockout rat fibroblasts. In words: Growth inhibition on wild type and Myc knockout rat fibroblasts. The format is cell-based. As to conditions: FIG. 3; for selectivity of growth inhibition for Myc WT over Myc KO cells: wild type vs Myc knockout rat fibroblasts. The text has this:
We tested the top 13 active compounds in the first screen assay. […] More than half of the tested compounds show better growth inhibitory effect on Myc WT compared to Myc KO cells.

Myc/Max binding to DNA, sequence (P01106 whole entry): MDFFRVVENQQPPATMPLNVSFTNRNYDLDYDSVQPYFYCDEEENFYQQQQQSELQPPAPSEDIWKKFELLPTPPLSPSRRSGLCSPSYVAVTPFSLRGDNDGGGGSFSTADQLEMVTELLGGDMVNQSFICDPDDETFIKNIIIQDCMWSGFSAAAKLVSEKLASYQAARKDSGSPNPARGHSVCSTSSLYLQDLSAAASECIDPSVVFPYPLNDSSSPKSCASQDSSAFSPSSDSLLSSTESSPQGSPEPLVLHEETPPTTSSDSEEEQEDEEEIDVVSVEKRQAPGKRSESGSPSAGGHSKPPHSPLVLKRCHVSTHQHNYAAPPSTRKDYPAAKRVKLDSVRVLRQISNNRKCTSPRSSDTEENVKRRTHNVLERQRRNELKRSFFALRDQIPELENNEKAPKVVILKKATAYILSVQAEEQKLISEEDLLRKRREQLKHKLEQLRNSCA

On to `CCc1ccc(Oc2c[nH]nc2-c2ccc(OCc3cnn(-c4ccccc4)c3)cc2O)cc1` [NUCC-0176234], for which, at Myc/Max binding to DNA, the IC50 stood at 123 µM, the remaining activity at 100 µM turned out to be 79% and the remaining activity at 200 µM was found to be 10%. Besides, the “reduction of cell viability, WT vs KO line” value in series [1] is listed as “reduces cell viability much more in the WT line than the KO cells”. Besides, the DNA damage entry in series [2] is reported as “essentially no DNA damage”.
Consider `CCc1ccc(Oc2c(-c3ccc(OCc4ccc(Cl)cc4)cc3O)n[nH]c2C(F)(F)F)cc1` [NUCC-0176242], for which, on Myc/Max binding to DNA, the IC50 amounted to 89 µM, the remaining activity at 100 µM amounted to 36% and the remaining activity at 200 µM amounted to 2%. In addition, the “in vivo metabolism (plasma concentration versus time)” value in series [3] is given as “correlated well with the observed in vitro metabolism”. The “metabolism by mouse S9 fraction” value in series [4] was “significantly metabolism by the mouse S9 fraction versus NUCC-176248”.
As to `CCc1ccc(Oc2c(-c3ccc(OCc4ccc(Cl)cc4)cc3O)nn(C)c2C(F)(F)F)cc1` [NUCC-0176248], on Myc/Max binding to DNA, the half-inhibitory concentration (IC50) came out at 96 µM, the remaining activity at 100 µM is 49% and the remaining activity at 200 µM was determined as 6%. The “in vivo metabolism (plasma concentration versus time)” value in series [3] is reported as “correlated well with the observed in vitro metabolism”. Besides, in series [5], the “effective concentration (dose with the greatest selectivity, growth inhibition Myc WT vs KO)” value worked out at 6 µM and the “selectivity of growth inhibition for Myc WT over Myc KO cells” value was “high specificity”.
As to `CCc1ccc(Oc2c(-c3ccc(OCc4ccncc4)cc3O)n[nH]c2C(F)(F)F)cc1` [NUCC-0176250], at Myc/Max binding to DNA, the remaining activity at 200 µM stood at 57%. Also, in series [5], the “effective concentration (dose with the greatest selectivity, growth inhibition Myc WT vs KO)” value was 50 µM and the “selectivity of growth inhibition for Myc WT over Myc KO cells” value is recorded as “great selectivity”.
